Experimental data: patent publication US9458137B2, “Substituted indol-5-ol derivatives and their therapeutical applications” (NantBioScience, Inc., priority 2012, dated 2016)

Columns and labels:
Assay in all cases: Kinase panel activity
Type in all cases: biochemical
Conditions in all cases: 0.1 μM, ATP Km
PKC ? (h) = PKC ? (h) (Homo sapiens, UniProt Q02156)
Protocol: (§1) The effect of NTW-3475 on kinase activity was tested for a wide range of kinases and is shown in Table 2: Summary Sheet, Activity % ATP Concentration: Km

PDGFRα(D842V)(h) = PDGFRα(D842V)(h) (Homo sapiens, UniProt P16234, D842V)
Protocol: as §1

GRK7(h) = GRK7(h) (Homo sapiens, UniProt Q8WTQ7)
Chain of GRK7(h) (Q8WTQ7 whole entry): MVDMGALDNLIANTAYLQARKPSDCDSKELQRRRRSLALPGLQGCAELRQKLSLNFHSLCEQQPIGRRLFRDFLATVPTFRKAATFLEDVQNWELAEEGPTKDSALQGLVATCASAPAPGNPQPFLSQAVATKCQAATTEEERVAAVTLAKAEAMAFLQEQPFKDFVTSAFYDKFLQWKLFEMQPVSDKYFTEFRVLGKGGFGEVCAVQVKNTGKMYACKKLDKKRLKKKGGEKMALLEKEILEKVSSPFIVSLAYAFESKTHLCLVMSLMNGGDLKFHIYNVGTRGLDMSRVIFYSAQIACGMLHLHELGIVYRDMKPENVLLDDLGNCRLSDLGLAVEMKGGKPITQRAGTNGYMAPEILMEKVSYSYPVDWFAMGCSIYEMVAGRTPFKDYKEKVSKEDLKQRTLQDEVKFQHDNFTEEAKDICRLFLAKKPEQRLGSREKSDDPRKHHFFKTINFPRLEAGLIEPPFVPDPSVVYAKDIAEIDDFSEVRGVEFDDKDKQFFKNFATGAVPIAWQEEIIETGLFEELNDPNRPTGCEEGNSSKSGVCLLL
Protocol: as §1

AMPKα2(h) = AMPKα2(h) (Homo sapiens, UniProt P54646)
Protocol: as §1

Ron(h) = target: T1, Ron(h) (Homo sapiens, UniProt Q04912)
T1 construct: purchased Millipore (KinaseProfiler service)
Protocol: as §1

TAO2(h) = target: T2, TAO2(h) (Homo sapiens, UniProt Q9UL54)
T2 construct: purchased Millipore (KinaseProfiler service)
T2 sequence (Q9UL54 whole entry): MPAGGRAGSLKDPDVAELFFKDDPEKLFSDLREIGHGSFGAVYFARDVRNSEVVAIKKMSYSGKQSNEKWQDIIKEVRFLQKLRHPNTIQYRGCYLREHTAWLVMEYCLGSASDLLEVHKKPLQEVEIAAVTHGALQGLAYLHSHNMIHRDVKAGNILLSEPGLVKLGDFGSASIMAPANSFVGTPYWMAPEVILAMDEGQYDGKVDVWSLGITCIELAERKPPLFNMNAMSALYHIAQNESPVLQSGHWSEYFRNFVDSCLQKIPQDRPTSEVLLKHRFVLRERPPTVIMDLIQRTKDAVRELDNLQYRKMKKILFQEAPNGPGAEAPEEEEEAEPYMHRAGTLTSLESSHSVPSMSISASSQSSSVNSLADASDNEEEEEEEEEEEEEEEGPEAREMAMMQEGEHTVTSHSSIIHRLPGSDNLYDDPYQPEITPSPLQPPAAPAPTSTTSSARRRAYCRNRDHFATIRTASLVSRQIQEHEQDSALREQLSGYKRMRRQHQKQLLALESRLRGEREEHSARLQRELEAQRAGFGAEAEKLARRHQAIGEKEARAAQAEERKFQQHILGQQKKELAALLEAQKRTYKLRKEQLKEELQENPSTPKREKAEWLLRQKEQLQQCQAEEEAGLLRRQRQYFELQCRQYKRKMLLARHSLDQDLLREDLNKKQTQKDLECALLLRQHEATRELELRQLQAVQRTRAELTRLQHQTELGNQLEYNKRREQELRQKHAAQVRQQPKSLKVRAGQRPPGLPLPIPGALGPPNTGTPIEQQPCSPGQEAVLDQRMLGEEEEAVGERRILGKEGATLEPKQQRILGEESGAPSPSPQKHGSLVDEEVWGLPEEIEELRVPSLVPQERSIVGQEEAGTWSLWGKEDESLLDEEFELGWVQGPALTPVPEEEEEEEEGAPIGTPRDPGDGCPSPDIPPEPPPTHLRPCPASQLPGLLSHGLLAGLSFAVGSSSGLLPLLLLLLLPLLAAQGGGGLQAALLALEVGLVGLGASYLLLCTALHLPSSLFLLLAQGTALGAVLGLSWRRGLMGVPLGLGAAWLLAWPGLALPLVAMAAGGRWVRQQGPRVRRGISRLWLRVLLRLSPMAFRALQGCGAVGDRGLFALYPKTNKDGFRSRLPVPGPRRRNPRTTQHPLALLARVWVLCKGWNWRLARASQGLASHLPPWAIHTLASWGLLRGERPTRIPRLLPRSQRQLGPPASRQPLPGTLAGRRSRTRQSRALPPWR
Protocol: as §1

B1k(m) = B1k(m) (Mus musculus, UniProt P16277)
Protocol: as §1

PEK(h) = PEK(h) (Homo sapiens, UniProt Q9NZJ5)
Protocol: as §1

PKBβ(h) = PKBβ(h) (Homo sapiens, UniProt P31751)
Protocol: as §1

Rsk1(r) = target: T3, Rsk1(r) (Rattus norvegicus, UniProt Q63531)
T3 construct: purchased Millipore (KinaseProfiler service)
Protocol: as §1

PAK6(h) = PAK6(h) (Homo sapiens, UniProt Q9NQU5)
Protocol: as §1

TAO1(h) = target: T4, TAO1(h) (Homo sapiens, UniProt Q7L7X3)
T4 construct: purchased Millipore (KinaseProfiler service)
Protocol: as §1

GRK5(h) = GRK5(h) (Homo sapiens, UniProt P34947)
Protocol: as §1

PKCβII(h) = PKCβII(h) (Homo sapiens, UniProt P05771)
Protocol: as §1

FGFR4(h) = FGFR4(h) (Homo sapiens, UniProt P22455)
Chain of FGFR4(h) (P22455 22-802): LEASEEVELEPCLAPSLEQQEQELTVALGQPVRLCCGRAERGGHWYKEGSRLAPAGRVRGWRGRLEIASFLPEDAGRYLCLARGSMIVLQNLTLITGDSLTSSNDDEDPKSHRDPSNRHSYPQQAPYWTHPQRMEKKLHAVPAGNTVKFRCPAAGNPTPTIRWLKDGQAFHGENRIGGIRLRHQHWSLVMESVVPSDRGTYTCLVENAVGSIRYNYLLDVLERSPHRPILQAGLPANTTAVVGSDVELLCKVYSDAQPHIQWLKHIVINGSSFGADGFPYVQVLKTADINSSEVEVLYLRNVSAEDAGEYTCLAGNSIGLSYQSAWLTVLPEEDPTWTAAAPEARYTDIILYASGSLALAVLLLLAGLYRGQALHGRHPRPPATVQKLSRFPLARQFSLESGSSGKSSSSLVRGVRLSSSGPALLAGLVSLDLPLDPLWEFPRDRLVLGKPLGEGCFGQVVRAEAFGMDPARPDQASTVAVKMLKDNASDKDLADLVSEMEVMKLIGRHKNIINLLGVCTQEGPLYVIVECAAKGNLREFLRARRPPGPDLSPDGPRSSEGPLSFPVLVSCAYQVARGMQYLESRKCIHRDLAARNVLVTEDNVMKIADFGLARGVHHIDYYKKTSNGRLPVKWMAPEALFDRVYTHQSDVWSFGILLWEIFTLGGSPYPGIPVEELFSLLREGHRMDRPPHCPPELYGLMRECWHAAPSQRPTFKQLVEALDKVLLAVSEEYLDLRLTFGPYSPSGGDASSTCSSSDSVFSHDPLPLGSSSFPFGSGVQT
Protocol: as §1

IRAK4(h) = IRAK4(h) (Homo sapiens, UniProt Q9NWZ3)
Protocol: as §1

CaMKIIδ(h) = CaMKIIδ(h) (Homo sapiens, UniProt Q13557)
Protocol: as §1

EphA2(h) = target: T5, EphA2(h) (Homo sapiens, UniProt P29317)
T5 construct: purchased Millipore (KinaseProfiler service)
Protocol: as §1

Rsk1(h) = target: T6, Rsk1(h) (Homo sapiens, UniProt Q15418)
T6 construct: purchased Millipore (KinaseProfiler service)
Protocol: as §1

Yes(h) = Yes(h) (Homo sapiens, UniProt P07947)
Protocol: as §1

PDGFRα(V561D)(h) = PDGFRα(V561D)(h) (Homo sapiens, UniProt P16234, V561D)
Protocol: as §1

EphA7(h) = target: T7, EphA7(h) (Homo sapiens, UniProt Q15375)
T7 construct: purchased Millipore (KinaseProfiler service)
Protocol: as §1

Fer(h) = target: T8, Fer(h) (Homo sapiens, UniProt P16591)
T8 construct: purchased Millipore (KinaseProfiler service)
T8 sequence (P16591 whole entry): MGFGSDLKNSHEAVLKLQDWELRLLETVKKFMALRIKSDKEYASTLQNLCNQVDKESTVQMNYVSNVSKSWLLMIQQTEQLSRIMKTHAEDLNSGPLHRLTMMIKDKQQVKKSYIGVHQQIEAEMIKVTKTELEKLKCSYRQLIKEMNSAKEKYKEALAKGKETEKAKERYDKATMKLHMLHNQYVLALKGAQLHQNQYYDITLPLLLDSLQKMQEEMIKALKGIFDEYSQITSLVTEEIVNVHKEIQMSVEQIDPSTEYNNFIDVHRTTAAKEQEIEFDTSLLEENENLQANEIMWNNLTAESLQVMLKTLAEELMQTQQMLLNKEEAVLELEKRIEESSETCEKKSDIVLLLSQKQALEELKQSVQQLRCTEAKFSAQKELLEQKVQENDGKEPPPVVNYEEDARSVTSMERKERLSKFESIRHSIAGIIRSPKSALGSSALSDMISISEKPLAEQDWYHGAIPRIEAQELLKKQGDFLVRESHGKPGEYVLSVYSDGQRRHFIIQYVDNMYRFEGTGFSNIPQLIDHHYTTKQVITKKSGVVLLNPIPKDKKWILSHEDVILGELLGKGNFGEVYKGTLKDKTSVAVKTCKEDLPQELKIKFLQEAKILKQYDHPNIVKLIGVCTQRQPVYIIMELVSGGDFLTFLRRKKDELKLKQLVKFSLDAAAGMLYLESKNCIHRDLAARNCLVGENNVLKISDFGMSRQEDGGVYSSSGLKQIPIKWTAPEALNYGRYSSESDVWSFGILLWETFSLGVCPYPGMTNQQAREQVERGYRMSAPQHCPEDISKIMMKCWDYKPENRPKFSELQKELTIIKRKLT
Protocol: as §1

PKCδ(h) = PKCδ(h) (Homo sapiens, UniProt Q05655)
Protocol: as §1

MAPK2(m) = MAPK2(m) (Mus musculus, UniProt P63085)
Protocol: as §1

MuSK(h) = MuSK(h) (Homo sapiens, UniProt O15146)
Protocol: as §1

LOK(h) = LOK(h) (Homo sapiens, UniProt O94804)
Protocol: as §1

FGFR2(N549H)(h) = FGFR2(N549H)(h) (Homo sapiens, UniProt P21802, N549H)
Protocol: as §1

Fyn(h) = Fyn(h) (Homo sapiens, UniProt P06241)
Protocol: as §1

IKKβ(h) = IKKβ(h) (Homo sapiens, UniProt O14920)
Chain of IKKβ(h) (O14920 whole entry): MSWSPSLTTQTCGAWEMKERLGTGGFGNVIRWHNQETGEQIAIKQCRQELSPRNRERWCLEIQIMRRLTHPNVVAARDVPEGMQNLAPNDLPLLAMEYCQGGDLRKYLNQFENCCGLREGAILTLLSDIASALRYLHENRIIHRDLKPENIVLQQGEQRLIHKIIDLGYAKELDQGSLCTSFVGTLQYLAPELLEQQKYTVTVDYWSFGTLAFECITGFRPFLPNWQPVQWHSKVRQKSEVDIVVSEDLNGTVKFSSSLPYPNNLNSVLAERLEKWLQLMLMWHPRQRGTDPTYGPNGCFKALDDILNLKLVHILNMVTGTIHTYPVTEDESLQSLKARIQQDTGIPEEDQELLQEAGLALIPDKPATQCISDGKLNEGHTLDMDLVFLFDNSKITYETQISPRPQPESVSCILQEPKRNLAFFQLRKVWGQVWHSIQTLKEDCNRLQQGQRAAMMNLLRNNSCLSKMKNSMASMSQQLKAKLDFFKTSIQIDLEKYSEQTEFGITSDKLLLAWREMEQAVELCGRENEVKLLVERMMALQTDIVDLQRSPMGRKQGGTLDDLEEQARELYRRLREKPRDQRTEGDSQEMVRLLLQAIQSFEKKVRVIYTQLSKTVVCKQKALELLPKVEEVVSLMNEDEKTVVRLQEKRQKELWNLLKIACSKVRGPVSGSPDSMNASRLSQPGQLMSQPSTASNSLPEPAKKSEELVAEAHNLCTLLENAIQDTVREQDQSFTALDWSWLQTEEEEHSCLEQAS
Protocol: as §1

Ab1(T3151)(h) = Ab1(T3151)(h) (Homo sapiens, UniProt P00519, T315I)
Protocol: as §1

CDK5/p25(h) = CDK5/p25(h) (Homo sapiens, UniProt Q00535)
Protocol: as §1

GSK3β(h) = GSK3β(h) (Homo sapiens, UniProt P49841)
Protocol: as §1

Src(T341M)(h) = target: T9, Src(T341M)(h) (Homo sapiens, UniProt P12931, T341M)
T9 construct: purchased Millipore (KinaseProfiler service)
Protocol: as §1

Mnk2(h) = target: T10, Mnk2(h) (Homo sapiens, UniProt Q9HBH9)
T10 construct: purchased Millipore (KinaseProfiler service)
Protocol: as §1

Aurora-B(h) = Aurora-B(h) (Homo sapiens, UniProt Q96GD4)
Protocol: as §1

CDK3/cyclinE(h) = CDK3/cyclinE(h) (Homo sapiens, UniProt Q00526)
Protocol: as §1

ROCK-II(r) = target: T11, ROCK-II(r) (Rattus norvegicus, UniProt Q62868)
T11 construct: purchased Millipore (KinaseProfiler service)
Protocol: as §1

ULK3(h) = ULK3(h) (Homo sapiens, UniProt Q6PHR2)
Protocol: as §1

Chain of PKC ? (h) (Q02156 whole entry): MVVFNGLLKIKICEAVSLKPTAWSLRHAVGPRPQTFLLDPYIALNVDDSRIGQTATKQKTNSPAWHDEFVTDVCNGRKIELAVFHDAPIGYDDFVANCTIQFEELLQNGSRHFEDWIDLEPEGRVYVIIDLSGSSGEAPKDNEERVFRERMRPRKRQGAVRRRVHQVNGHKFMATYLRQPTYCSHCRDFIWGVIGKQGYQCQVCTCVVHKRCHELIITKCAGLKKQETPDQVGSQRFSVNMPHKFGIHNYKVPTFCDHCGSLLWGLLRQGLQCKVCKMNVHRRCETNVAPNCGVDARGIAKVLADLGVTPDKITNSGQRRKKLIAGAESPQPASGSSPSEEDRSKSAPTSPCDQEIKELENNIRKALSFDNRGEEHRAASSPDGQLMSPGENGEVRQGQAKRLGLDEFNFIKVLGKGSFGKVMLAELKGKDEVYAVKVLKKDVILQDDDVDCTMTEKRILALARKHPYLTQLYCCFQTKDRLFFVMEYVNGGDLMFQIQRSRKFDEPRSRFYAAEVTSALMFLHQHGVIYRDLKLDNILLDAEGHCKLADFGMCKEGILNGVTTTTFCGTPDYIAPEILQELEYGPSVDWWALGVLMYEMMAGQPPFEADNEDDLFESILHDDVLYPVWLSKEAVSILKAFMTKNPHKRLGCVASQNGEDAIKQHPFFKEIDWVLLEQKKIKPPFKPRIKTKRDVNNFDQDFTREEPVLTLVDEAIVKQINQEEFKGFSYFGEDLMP

Cc1cc2c(F)c(Oc3nc(Nc4cc(C5CC5)[nH]n4)cc(N4CCN(C)CC4)n3)cc(F)c2[nH]1 [NTW-3475]
Activity % (PKC ? (h)): 99% | Activity % (PDGFRα(D842V)(h)): 17% | Activity % (GRK7(h)): 97% | Activity % (AMPKα2(h)): 5% | Activity % (Ron(h)): 34% | Activity % (TAO2(h)): 6% | Activity % (B1k(m)): 14% | Activity % (PEK(h)): 103% | Activity % (PKBβ(h)): 97% | Activity % (Rsk1(r)): 69% | Activity % (PAK6(h)): 85% | Activity % (TAO1(h)): 65% | Activity % (GRK5(h)): 100% | Activity % (PKCβII(h)): 109% | Activity % (FGFR4(h)): 19% | Activity % (IRAK4(h)): 67% | Activity % (CaMKIIδ(h)): 98% | Activity % (EphA2(h)): −1% | Activity % (Rsk1(h)): 84% | Activity % (Yes(h)): 0% | Activity % (PDGFRα(V561D)(h)): 8% | Activity % (EphA7(h)): 54% | Activity % (Fer(h)): 69% | Activity % (PKCδ(h)): 90% | Activity % (MAPK2(m)): 101% | Activity % (MuSK(h)): 48% | Activity % (LOK(h)): 20% | Activity % (FGFR2(N549H)(h)): −1% | Activity % (Fyn(h)): 1% | Activity % (IKKβ(h)): 109% | Activity % (Ab1(T3151)(h)): −2% | Activity % (CDK5/p25(h)): 60% | Activity % (GSK3β(h)): 106% | Activity % (Src(T341M)(h)): 1% | Activity % (Mnk2(h)): 92% | Activity % (Aurora-B(h)): 1% | Activity % (CDK3/cyclinE(h)): 59% | Activity % (ROCK-II(r)): 42% | Activity % (ULK3(h)): 11%
